Data reported in US20140120232A1, “ACID TASTE/ACID SMELL-REDUCING AGENT” (T. HASEGAWA CO., LTD., priority 2011, published 2014).

Test: Sensory evaluation of Vermont drink containing the agent
Conditions: ten panels
Summary of the method: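 Tridecadienal or tridecatrienal isomers added at various concentrations to a Vermont-flavoured drink (apple-cider vinegar, honey, liquid sugar, citric acid, trisodium citrate, 100 mL total). Ten panelists assessed acid taste/acid smell and aldehyde-type off-odour, and the concentration giving the best acid taste/smell quality was selected.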

SMILES: CCCCC/C=C\C/C=C\C=C\C=O [(E,Z,Z)-2,4,7-tridecatrienal]
- A: number of panels, acid taste/acid smell extreme and cause irritation (0.005 ppt): 10
- B: number of panels, acid taste/acid smell slightly strong and slightly cause irritation (0.005 ppt): 0
- C: number of panels, acid taste/acid smell slightly unpleasant (0.005 ppt): 0
- Flavor judgment: number of panels who judged acid taste/acid smell quality the highest (0.005 ppt): 0
- N: number of panels, irritation of acid reduced to give a mild acid taste (0.005 ppt): 0
- X: number of panels, acid taste reduced but piercing odor characteristic to aldehydes unpleasant (0.005 ppt): 0
- A: number of panels, acid taste/acid smell extreme and cause irritation (0.02 ppt): 8
- B: number of panels, acid taste/acid smell slightly strong and slightly cause irritation (0.02 ppt): 1
- C: number of panels, acid taste/acid smell slightly unpleasant (0.02 ppt): 1
- Flavor judgment: number of panels who judged acid taste/acid smell quality the highest (0.02 ppt): 0
- N: number of panels, irritation of acid reduced to give a mild acid taste (0.02 ppt): 0
- X: number of panels, acid taste reduced but piercing odor characteristic to aldehydes unpleasant (0.02 ppt): 0
- A: number of panels, acid taste/acid smell extreme and cause irritation (0.1 ppt): 7
- B: number of panels, acid taste/acid smell slightly strong and slightly cause irritation (0.1 ppt): 2
- C: number of panels, acid taste/acid smell slightly unpleasant (0.1 ppt): 1
- Flavor judgment: number of panels who judged acid taste/acid smell quality the highest (0.1 ppt): 0
- N: number of panels, irritation of acid reduced to give a mild acid taste (0.1 ppt): 0
- X: number of panels, acid taste reduced but piercing odor characteristic to aldehydes unpleasant (0.1 ppt): 0
- A: number of panels, acid taste/acid smell extreme and cause irritation (0.2 ppt): 4
- B: number of panels, acid taste/acid smell slightly strong and slightly cause irritation (0.2 ppt): 3
- C: number of panels, acid taste/acid smell slightly unpleasant (0.2 ppt): 3
- Flavor judgment: number of panels who judged acid taste/acid smell quality the highest (0.2 ppt): 0
- N: number of panels, irritation of acid reduced to give a mild acid taste (0.2 ppt): 0
- X: number of panels, acid taste reduced but piercing odor characteristic to aldehydes unpleasant (0.2 ppt): 0
- A: number of panels, acid taste/acid smell extreme and cause irritation (0.5 ppt): 0
- B: number of panels, acid taste/acid smell slightly strong and slightly cause irritation (0.5 ppt): 1
- C: number of panels, acid taste/acid smell slightly unpleasant (0.5 ppt): 3
- Flavor judgment: number of panels who judged acid taste/acid smell quality the highest (0.5 ppt): 1
- N: number of panels, irritation of acid reduced to give a mild acid taste (0.5 ppt): 6
- X: number of panels, acid taste reduced but piercing odor characteristic to aldehydes unpleasant (0.5 ppt): 0
- A: number of panels, acid taste/acid smell extreme and cause irritation (1 ppb): 0
- B: number of panels, acid taste/acid smell slightly strong and slightly cause irritation (1 ppb): 0
- C: number of panels, acid taste/acid smell slightly unpleasant (1 ppb): 3
- Flavor judgment: number of panels who judged acid taste/acid smell quality the highest (1 ppb): 0
- N: number of panels, irritation of acid reduced to give a mild acid taste (1 ppb): 3
- X: number of panels, acid taste reduced but piercing odor characteristic to aldehydes unpleasant (1 ppb): 4
- A: number of panels, acid taste/acid smell extreme and cause irritation (1 ppt): 0
- B: number of panels, acid taste/acid smell slightly strong and slightly cause irritation (1 ppt): 1
- C: number of panels, acid taste/acid smell slightly unpleasant (1 ppt): 2
- Flavor judgment: number of panels who judged acid taste/acid smell quality the highest (1 ppt): 3
- N: number of panels, irritation of acid reduced to give a mild acid taste (1 ppt): 7
- X: number of panels, acid taste reduced but piercing odor characteristic to aldehydes unpleasant (1 ppt): 0
- A: number of panels, acid taste/acid smell extreme and cause irritation (5 ppt): 0
- B: number of panels, acid taste/acid smell slightly strong and slightly cause irritation (5 ppt): 0
- C: number of panels, acid taste/acid smell slightly unpleasant (5 ppt): 3
- Flavor judgment: number of panels who judged acid taste/acid smell quality the highest (5 ppt): 3
- N: number of panels, irritation of acid reduced to give a mild acid taste (5 ppt): 7
- X: number of panels, acid taste reduced but piercing odor characteristic to aldehydes unpleasant (5 ppt): 0
- A: number of panels, acid taste/acid smell extreme and cause irritation (10 ppb): 0
- B: number of panels, acid taste/acid smell slightly strong and slightly cause irritation (10 ppb): 0
- C: number of panels, acid taste/acid smell slightly unpleasant (10 ppb): 2
- Flavor judgment: number of panels who judged acid taste/acid smell quality the highest (10 ppb): 0
- N: number of panels, irritation of acid reduced to give a mild acid taste (10 ppb): 3
- X: number of panels, acid taste reduced but piercing odor characteristic to aldehydes unpleasant (10 ppb): 5
- A: number of panels, acid taste/acid smell extreme and cause irritation (20 ppt): 0
- B: number of panels, acid taste/acid smell slightly strong and slightly cause irritation (20 ppt): 0
- C: number of panels, acid taste/acid smell slightly unpleasant (20 ppt): 4
- Flavor judgment: number of panels who judged acid taste/acid smell quality the highest (20 ppt): 3
- N: number of panels, irritation of acid reduced to give a mild acid taste (20 ppt): 6
- X: number of panels, acid taste reduced but piercing odor characteristic to aldehydes unpleasant (20 ppt): 0
- A: number of panels, acid taste/acid smell extreme and cause irritation (50 ppb): 0
- B: number of panels, acid taste/acid smell slightly strong and slightly cause irritation (50 ppb): 0
- C: number of panels, acid taste/acid smell slightly unpleasant (50 ppb): 1
- Flavor judgment: number of panels who judged acid taste/acid smell quality the highest (50 ppb): 0
- N: number of panels, irritation of acid reduced to give a mild acid taste (50 ppb): 2
- X: number of panels, acid taste reduced but piercing odor characteristic to aldehydes unpleasant (50 ppb): 7
- A: number of panels, acid taste/acid smell extreme and cause irritation (100 ppt): 0
- B: number of panels, acid taste/acid smell slightly strong and slightly cause irritation (100 ppt): 2
- C: number of panels, acid taste/acid smell slightly unpleasant (100 ppt): 3
- Flavor judgment: number of panels who judged acid taste/acid smell quality the highest (100 ppt): 0
- N: number of panels, irritation of acid reduced to give a mild acid taste (100 ppt): 4
- X: number of panels, acid taste reduced but piercing odor characteristic to aldehydes unpleasant (100 ppt): 1
- A: number of panels, acid taste/acid smell extreme and cause irritation (500 ppt): 0
- B: number of panels, acid taste/acid smell slightly strong and slightly cause irritation (500 ppt): 0
- C: number of panels, acid taste/acid smell slightly unpleasant (500 ppt): 3
- Flavor judgment: number of panels who judged acid taste/acid smell quality the highest (500 ppt): 0
- N: number of panels, irritation of acid reduced to give a mild acid taste (500 ppt): 4
- X: number of panels, acid taste reduced but piercing odor characteristic to aldehydes unpleasant (500 ppt): 3

SMILES: CCCCC/C=C/C/C=C\CCC=O [(Z,E)-4,7-tridecadienal]
- A: number of panels, acid taste/acid smell extreme and cause irritation (0.005 ppt): 10
- B: number of panels, acid taste/acid smell slightly strong and slightly cause irritation (0.005 ppt): 0
- C: number of panels, acid taste/acid smell slightly unpleasant (0.005 ppt): 0
- Flavor judgment: number of panels who judged acid taste/acid smell quality the highest (0.005 ppt): 0
- N: number of panels, irritation of acid reduced to give a mild acid taste (0.005 ppt): 0
- X: number of panels, acid taste reduced but piercing odor characteristic to aldehydes unpleasant (0.005 ppt): 0
- A: number of panels, acid taste/acid smell extreme and cause irritation (0.02 ppt): 10
- B: number of panels, acid taste/acid smell slightly strong and slightly cause irritation (0.02 ppt): 0
- C: number of panels, acid taste/acid smell slightly unpleasant (0.02 ppt): 0
- Flavor judgment: number of panels who judged acid taste/acid smell quality the highest (0.02 ppt): 0
- N: number of panels, irritation of acid reduced to give a mild acid taste (0.02 ppt): 0
- X: number of panels, acid taste reduced but piercing odor characteristic to aldehydes unpleasant (0.02 ppt): 0
- A: number of panels, acid taste/acid smell extreme and cause irritation (0.1 ppt): 10
- B: number of panels, acid taste/acid smell slightly strong and slightly cause irritation (0.1 ppt): 0
- C: number of panels, acid taste/acid smell slightly unpleasant (0.1 ppt): 0
- Flavor judgment: number of panels who judged acid taste/acid smell quality the highest (0.1 ppt): 0
- N: number of panels, irritation of acid reduced to give a mild acid taste (0.1 ppt): 0
- X: number of panels, acid taste reduced but piercing odor characteristic to aldehydes unpleasant (0.1 ppt): 0
- A: number of panels, acid taste/acid smell extreme and cause irritation (0.2 ppt): 9
- B: number of panels, acid taste/acid smell slightly strong and slightly cause irritation (0.2 ppt): 1
- C: number of panels, acid taste/acid smell slightly unpleasant (0.2 ppt): 0
- Flavor judgment: number of panels who judged acid taste/acid smell quality the highest (0.2 ppt): 0
- N: number of panels, irritation of acid reduced to give a mild acid taste (0.2 ppt): 0
- X: number of panels, acid taste reduced but piercing odor characteristic to aldehydes unpleasant (0.2 ppt): 0
- A: number of panels, acid taste/acid smell extreme and cause irritation (0.5 ppt): 5
- B: number of panels, acid taste/acid smell slightly strong and slightly cause irritation (0.5 ppt): 3
- C: number of panels, acid taste/acid smell slightly unpleasant (0.5 ppt): 2
- Flavor judgment: number of panels who judged acid taste/acid smell quality the highest (0.5 ppt): 0
- N: number of panels, irritation of acid reduced to give a mild acid taste (0.5 ppt): 0
- X: number of panels, acid taste reduced but piercing odor characteristic to aldehydes unpleasant (0.5 ppt): 0
- A: number of panels, acid taste/acid smell extreme and cause irritation (1 ppb): 0
- B: number of panels, acid taste/acid smell slightly strong and slightly cause irritation (1 ppb): 0
- C: number of panels, acid taste/acid smell slightly unpleasant (1 ppb): 2
- Flavor judgment: number of panels who judged acid taste/acid smell quality the highest (1 ppb): 0
- N: number of panels, irritation of acid reduced to give a mild acid taste (1 ppb): 4
- X: number of panels, acid taste reduced but piercing odor characteristic to aldehydes unpleasant (1 ppb): 4
- A: number of panels, acid taste/acid smell extreme and cause irritation (1 ppt): 0
- B: number of panels, acid taste/acid smell slightly strong and slightly cause irritation (1 ppt): 3
- C: number of panels, acid taste/acid smell slightly unpleasant (1 ppt): 6
- Flavor judgment: number of panels who judged acid taste/acid smell quality the highest (1 ppt): 0
- N: number of panels, irritation of acid reduced to give a mild acid taste (1 ppt): 1
- X: number of panels, acid taste reduced but piercing odor characteristic to aldehydes unpleasant (1 ppt): 0
- A: number of panels, acid taste/acid smell extreme and cause irritation (5 ppt): 0
- B: number of panels, acid taste/acid smell slightly strong and slightly cause irritation (5 ppt): 2
- C: number of panels, acid taste/acid smell slightly unpleasant (5 ppt): 2
- Flavor judgment: number of panels who judged acid taste/acid smell quality the highest (5 ppt): 4
- N: number of panels, irritation of acid reduced to give a mild acid taste (5 ppt): 6
- X: number of panels, acid taste reduced but piercing odor characteristic to aldehydes unpleasant (5 ppt): 0
- A: number of panels, acid taste/acid smell extreme and cause irritation (10 ppb): 0
- B: number of panels, acid taste/acid smell slightly strong and slightly cause irritation (10 ppb): 0
- C: number of panels, acid taste/acid smell slightly unpleasant (10 ppb): 2
- Flavor judgment: number of panels who judged acid taste/acid smell quality the highest (10 ppb): 0
- N: number of panels, irritation of acid reduced to give a mild acid taste (10 ppb): 3
- X: number of panels, acid taste reduced but piercing odor characteristic to aldehydes unpleasant (10 ppb): 5
- A: number of panels, acid taste/acid smell extreme and cause irritation (20 ppt): 0
- B: number of panels, acid taste/acid smell slightly strong and slightly cause irritation (20 ppt): 1
- C: number of panels, acid taste/acid smell slightly unpleasant (20 ppt): 2
- Flavor judgment: number of panels who judged acid taste/acid smell quality the highest (20 ppt): 3
- N: number of panels, irritation of acid reduced to give a mild acid taste (20 ppt): 7
- X: number of panels, acid taste reduced but piercing odor characteristic to aldehydes unpleasant (20 ppt): 0
- A: number of panels, acid taste/acid smell extreme and cause irritation (50 ppb): 0
- B: number of panels, acid taste/acid smell slightly strong and slightly cause irritation (50 ppb): 0
- C: number of panels, acid taste/acid smell slightly unpleasant (50 ppb): 0
- Flavor judgment: number of panels who judged acid taste/acid smell quality the highest (50 ppb): 0
- N: number of panels, irritation of acid reduced to give a mild acid taste (50 ppb): 2
- X: number of panels, acid taste reduced but piercing odor characteristic to aldehydes unpleasant (50 ppb): 8
- A: number of panels, acid taste/acid smell extreme and cause irritation (100 ppt): 0
- B: number of panels, acid taste/acid smell slightly strong and slightly cause irritation (100 ppt): 0
- C: number of panels, acid taste/acid smell slightly unpleasant (100 ppt): 2
- Flavor judgment: number of panels who judged acid taste/acid smell quality the highest (100 ppt): 3
- N: number of panels, irritation of acid reduced to give a mild acid taste (100 ppt): 8
- X: number of panels, acid taste reduced but piercing odor characteristic to aldehydes unpleasant (100 ppt): 0
- A: number of panels, acid taste/acid smell extreme and cause irritation (500 ppt): 0
- B: number of panels, acid taste/acid smell slightly strong and slightly cause irritation (500 ppt): 1
- C: number of panels, acid taste/acid smell slightly unpleasant (500 ppt): 3
- Flavor judgment: number of panels who judged acid taste/acid smell quality the highest (500 ppt): 0
- N: number of panels, irritation of acid reduced to give a mild acid taste (500 ppt): 4
- X: number of panels, acid taste reduced but piercing odor characteristic to aldehydes unpleasant (500 ppt): 2
